Assay results reported in patent publication US20130336940A1, “MODIFIED PIG ISLETS FOR DIABETES TREATMENT” (UNIVERSITE CATHOLIQUE DE LOUVAIN, priority 2011, published 2013).

Assays:
adult pig islets = conditions: cited from earlier work
[1] = test system: islets from wild-type pigs; test: Insulin release of wild-type pig islets with exogenous GLP-1; format: cell-based
Experimental: After isolation from wild-type pigs, islets were incubated overnight at 37° C., 5% CO2/95% O2 in RMPI medium containing 10% heat-inactivated FCS, 100 IU/ml penicillin, 100 μg/ml streptomycin and 5 mmol/l glucose. The function of islets in different culture conditions was assessed by 2 or 24 hr incubation of 200 islets in 1.5 ml buffer containing (i) 1 mmol/l glucose, (ii) 15 mmol/l glucose, (iii) 15 mmol/l glucose+[…] Forskolin (fsk) (Calbiochem-Behring, San Diego, Calif.) (added from a 1 mmol/l stock solution in DMSO), (iv) 15 mmol/l glucose+1 μmol/l fsk, (v) 15 mmol/l glucose+5 nM GLP-1 (Sigma Aldrich), (vi) 15 mmol/l glucose+50 nM GLP-1, (vii) 15 mmol/l glucose+500 nM GLP-1, (viii) 15 mmol/l glucose+1 μmol/l fsk+50 nM GLP-1. Three replicates per concentration were performed. Media were thereafter recovered for insulin quantification and islets were transferred in acid-ethanol for hormones extraction and quantification by radioimmuno-assay (Human insulin RIA kit, Millipore, Billerica, Mass., USA).

isolated pig islets = test: In vitro islet functionality (24 hr incubation at G5, G15, G15+Fsk; insulin/glucagon RIA); format: cell-based
Experimental: The following steps were performed with the samples kept on ice. […] The samples were then sonicated 4×20 seconds (Sonifier B 12 [Branson Sonic Power Company, Danbury, Conn., USA]) and centrifugated 10 minutes at 4° C. at 1500 rpm. The first supernatant formed was removed and kept at −20° C. […] The samples were then kept at −20° C. overnight. After a step of centrifugation 10 minutes at 4° C. at 1500 rpm, the second supernatant was removed and kept at −20° C. […] The three supernatants were then pooled and constituted the pancreas extract. Human insulin specific RIA KIT and Glucagon RIA KIT (Millipore, Billerica, Mass., USA) were used for the determination of the hormonal content in human/pig pancreatic extractions as well as in isolated islets (see below). The content of insulin and glucagon in the extracts was performed following the instructions of the manufacturer. […] After incubation overnight at room temperature, 1 mL of precipitating reagent were added, followed by incubation 20 minutes at 4° C. The samples were then centrifuged 20 minutes at 2000-3000×g at 4° C.
Three replicates per concentration were performed. Media were thereafter recovered for insulin and glucagon quantification and islets were transferred in acid-ethanol for hormones extraction and quantification by radioimmuno-assay (see above).

[2] = 15 mmol/l glucose + 1 μmol/l Fsk, native and treated pig islets

glucagon: peptide hormone added to adult pig islets in cited literature studies
increase of stimulation index (adult pig islets; acute exposure to 1 or 10 μM glucagon): 30% | basal insulin release in comparison with control situation (adult pig islets; islets cultured in the presence of 10 μM glucagon): 2 fold

GLP-1: exogenous GLP-1 (Sigma Aldrich) added to wild-type pig islets
increase of insulin release ([1]; 500 nM GLP-1, glucose 15 mM, 24 hrs incubation): 12% | stimulation index (ratio of insulin release at glucose 15 mM vs. 1 mM) ([1]; GLP-1 at 500 nM): significant increase | increase of insulin release in comparison to glucose 15 mM alone ([1]; GLP-1 at 50-500 nM, glucose 15 mM, 2 hrs incubation): 10%

C=C[C@@]1(C)CC(=O)[C@]2(O)[C@@]3(C)[C@@H](O)CCC(C)(C)[C@@H]3[C@H](O)[C@H](OC(C)=O)[C@@]2(C)O1 [Fsk, Forskolin]
increase in insulin secretion after G15+Fsk in comparison with G5 and G15 (isolated pig islets; 1 μmol/l Fsk, native and treated islets): 2 to 4 fold | effect on glucagon secretion or content (isolated pig islets; [2]): No effect | effect on insulin content (isolated pig islets; [2]): No effect
